Like-named read-outs stand apart in the source and are kept apart here.
What was measured:
[1] = tested on: adult Rhipicephalus sanguineus ticks; assay: whole plant or invertebrate
Description: Fipronil was dissolved in acetone containing 0.019% of a mixture of Triton 152 and Triton 172 (1:3, v/v) and 0.4% DMSO to achieve the desired concentration. Dosages were serially diluted using this same formulation. For treatments containing amitraz, amitraz was added to the above solution to achieve the desired concentration. 0.5 ml of the solution was used to treat 20 ml scintillation vials containing a 0.125″ hole in the cap. […] Filter papers treated with this same solution were placed in the cap and bottom of the treated vial. Vials were capped and held over night at 24° C. and 95% RH after which 10 adult Rhipicephalus sanguineus ticks were placed into each vial. The vials were held under the same conditions mentioned above for the duration of the test. […]

[2] = tested on: adult Rhipicephalus sanguineus; assay: Tick motility petri dish assay with imaging system, amitraz and fipronil; assay type: in vivo; details: for Geometric Mean of movement values for stimulated ticks: amitraz 0.32 ug/cm^2, fipronil serial dilutions 1.3-0.005 ug/cm^2; for motility of ticks over time: compound alone, compared to solvent control treated ticks
Text: An imaging system was used for the automated analysis of tick motility in response to amitraz and fipronil treatments to remove the subjective interpretation of manual test evaluation. The study was designed to evaluate the affect of amitraz and fipronil alone and in combination, as compared to a control, on the motility of ticks over time.
The motility of adult Rhipicephalus sanguineus was compared for amitraz-only, fipronil-only and the combination of fipronil and amitraz in a petri dish assay using the imaging system. The assay was run using a fixed dilution of amitraz (0.32 ug/cm^2), with serial dilutions of fipronil (1.3, 0.33, 0.08, 0.02, or 0.005 ug/cm^2) alone and in combination with the fixed dilution of amitraz. Six independent replications were conducted.
A plate holding four petri dishes was custom made for the imaging system. At each time point the plate holding four petri dishes was placed on the imaging system and evaluated for motility. The set up of the plate for each evaluation is illustrated below in Table 21.
For Dish A1, a volume of 625 μL of ethanol was used to treat the tops and 625 μL to treat the bottoms of the petri dish. All solutions were formulated in 100% ethanol. For Dish A2, a volume of 125 μL of the 25 ppm amitraz solution was used to treat the tops and 125 μL to treat the bottoms of the petri dish. For Dish B1, the top and bottom portions of the petri dishes were each treated with 500 μL of the 25 ppm solution of fipronil (serially diluted for each Plate 1-5) and 125 μL of the 25 ppm solution of amitraz. And for Dish B2, each of the top and bottom portions of the petri dishes were treated with 500 μL of the 25 ppm solution of fipronil (serially diluted for each Plate 1-5). After application of the corresponding solution to the petri dishes, the petri dishes were left open under a fan and allowed to dry for 1 hour. After drying, the dishes were infested with 10 adult Rhipicephalus sanguineus (supplied by Ecto Services, Inc. Henderson, N.C.). The ticks were left undisturbed for 1 hour before evaluation in the imaging system. Between evaluations ticks were maintained at approximately 21° C. and 60% RH.
After the initial hour, each Plate 1-5 was sequentially placed into the imaging system for evaluation. Image processing calculates the change in movement of the ticks between each image. The value generated is equal to the movement in each petri dish during the image time. The ticks in each individual petri dish were then stimulated to move by breathing/exhaling into the plate. After stimulation, the plates were placed back into the imaging system for another evaluation to determine if the treatment affected the tick's ability to move. Image capture was repeated as in the pre-stimulated evaluation.
Evaluations were made at 1, 4, 18, and 24 hours post infest (hpi) for 3 trials. For 3 trials the 4 hour evaluation was not done and for 3 trials the third evaluation was done at 21 to 22 hours. Raw data values were exported from the imaging system and comparative analysis of treatments over time was conducted.

[3] = tested on: adult brown dog ticks (Rhipicephalus sanguineus); assay: Tick DMSO contact assay, Compound 1 with amitraz, Example 15; assay type: in vivo; details: for mortality at 6.25 ppm / mortality at 12.5 ppm / mortality at 25 ppm: Rhipicephalus sanguineus; for Synergistic Ratio (EC50): EC50 alone divided by EC50 with Amitraz (12.5 ppm); for Synergistic Ratio (EC90): EC90 alone divided by EC90 with Amitraz (12.5 ppm)
Description: Dosages were serially diluted using this same formulation.
Scintillation vials were treated with commercial and experimental compounds using the same procedure described in Example 12 above. The treated vials were used to determine the contact toxicity of compounds against adult brown dog ticks (Rhipicephalus sanguineus). The ticks were supplied by Ecto Services Inc. Henderson, N.C.
Unfed adult ticks were released into a metal pan and 10 living ticks were aspirated into each vial. […] Two replicates were tested for each treatment and the results were averaged. Ticks were stimulated by gently exhaling in the vials. Within the same time period, the addition of amitraz to an equal dosage of compound 1 increased mean mortality.

[4] = 4 h, read-out: 4 hour % Mortality Rep 1
[5] = 4 h, read-out: 4 hour % Mortality Rep 2
[6] = 4 h, read-out: 4 hour Avg. % Mortality
[7] = 24 h, read-out: 24 hour % Mortality Rep 1
[8] = 24 h, read-out: 24 hour % Mortality Rep 2
[9] = 24 h, read-out: 24 hour Avg. % Mortality
[10] = 48 h, read-out: 48 hour % Mortality Rep 1
[11] = 48 h, read-out: 48 hour % Mortality Rep 2
[12] = 48 h, read-out: 48 hour Avg. % Mortality
[13] = 6 h, read-out: 6 hour % Mortality Rep 1
[14] = 6 h, read-out: 6 hour % Mortality Rep 2
[15] = 6 h, read-out: 6 hour Avg. % Mortality

## Cc1ccc(/N=C/N(C)/C=N/c2ccc(C)cc2C)c(C)c1 [Amitraz, amitraz]
[1]; [4]
  mortality at 3.13 ppm: 0%
  mortality at 6.25 ppm: 0%
  mortality at 12.5 ppm: 0%
  mortality at 25 ppm: 0%
[1]; [5]
  mortality at 3.13 ppm: 0%
  mortality at 6.25 ppm: 0%
  mortality at 12.5 ppm: 0%
  mortality at 25 ppm: 0%
[1]; [6]
  mortality at 3.13 ppm: 0%
  mortality at 6.25 ppm: 0%
  mortality at 12.5 ppm: 0%
  mortality at 25 ppm: 0%
[1]; [7]
  mortality at 3.13 ppm: 0%
  mortality at 6.25 ppm: 0%
  mortality at 12.5 ppm: 0%
  mortality at 25 ppm: 0%
[1]; [8]
  mortality at 3.13 ppm: 0%
  mortality at 6.25 ppm: 0%
  mortality at 12.5 ppm: 0%
  mortality at 25 ppm: 0%
[1]; [9]
  mortality at 3.13 ppm: 0%
  mortality at 6.25 ppm: 0%
  mortality at 12.5 ppm: 0%
  mortality at 25 ppm: 0%
[1]; [10]
  mortality at 3.13 ppm: 0%
  mortality at 6.25 ppm: 0%
  mortality at 12.5 ppm: 0%
  mortality at 25 ppm: 0%
[1]; [11]
  mortality at 3.13 ppm: 0%
  mortality at 6.25 ppm: 0%
  mortality at 12.5 ppm: 0%
  mortality at 25 ppm: 0%
[1]; [12]
  mortality at 3.13 ppm: 0%
  mortality at 6.25 ppm: 0%
  mortality at 12.5 ppm: 0%
  mortality at 25 ppm: 0%
[2]; 21-22 hours post infestation
  Geometric Mean of movement values for stimulated ticks: 30,300
[2]; 1 hours post infestation
  Geometric Mean of movement values for stimulated ticks: 56,900
[2]; 4 hours post infestation
  Geometric Mean of movement values for stimulated ticks: 44,300
[2]; 18 hours post infestation
  Geometric Mean of movement values for stimulated ticks: 33,200
[2]; 24 hours post infestation
  Geometric Mean of movement values for stimulated ticks: 34,300
[2]
  motility of ticks over time: increase in motility
[3]; [13]
  mortality at 6.25 ppm: 0%
  mortality at 12.5 ppm: 0%
  mortality at 25 ppm: 0%
[3]; [14]
  mortality at 6.25 ppm: 0%
  mortality at 12.5 ppm: 0%
  mortality at 25 ppm: 0%
[3]; [15]
  mortality at 6.25 ppm: 0%
  mortality at 12.5 ppm: 0%
  mortality at 25 ppm: 0%
[3]; [7]
  mortality at 6.25 ppm: 0%
  mortality at 12.5 ppm: 0%
  mortality at 25 ppm: 0%
[3]; [8]
  mortality at 6.25 ppm: 0%
  mortality at 12.5 ppm: 0%
  mortality at 25 ppm: 0%
[3]; [9]
  mortality at 6.25 ppm: 0%
  mortality at 12.5 ppm: 0%
  mortality at 25 ppm: 0%
[3]; [10]
  mortality at 6.25 ppm: 0%
  mortality at 12.5 ppm: 0%
  mortality at 25 ppm: 10%
[3]; [11]
  mortality at 6.25 ppm: 0%
  mortality at 12.5 ppm: 0%
  mortality at 25 ppm: 10%
[3]; [12]
  mortality at 6.25 ppm: 0%
  mortality at 12.5 ppm: 0%
  mortality at 25 ppm: 10%

## Cc1c([S+]([O-])C(F)(Cl)Cl)c(C#N)nn1-c1c(F)cc(C(F)(F)F)cc1Cl (centres unmarked) [Compound 1, 3-cyano-1-(2-chloro-6-fluoro-4-trifluoromethylphenyl)-4-dichlorofluoromethylsulfinyl-5-methyl-1H-pyrazole]
[3]; 6 hour Eval
  Synergistic Ratio (EC50): 11
  Synergistic Ratio (EC90): >5.72
[3]; 24 hour Eval
  Synergistic Ratio (EC50): 135.3
  Synergistic Ratio (EC90): 111.4
[3]; 48 hour Eval
  Synergistic Ratio (EC50): 133.1
  Synergistic Ratio (EC90): 50.3

## N#Cc1nn(-c2c(Cl)cc(C(F)(F)F)cc2Cl)c(N)c1[S+]([O-])C(F)(F)F (centres unmarked) [fipronil, 5-amino-3-cyano-1-(2,6-dichloro-4-trifluoromethylphenyl)-4-trifluoromethylsulfinylpyrazole]
[1]; [4]
  mortality at 0.025 ppm: 0%
  mortality at 0.1 ppm: 0%
  mortality at 0.4 ppm: 0%
  mortality at 1.6 ppm: 0%
  mortality at 6.25 ppm: 10%
  mortality at 25 ppm: 80%
[1]; [5]
  mortality at 0.025 ppm: 0%
  mortality at 0.1 ppm: 0%
  mortality at 0.4 ppm: 0%
  mortality at 1.6 ppm: 0%
  mortality at 6.25 ppm: 20%
  mortality at 25 ppm: 90%
[1]; [6]
  mortality at 0.025 ppm: 0%
  mortality at 0.1 ppm: 0%
  mortality at 0.4 ppm: 0%
  mortality at 1.6 ppm: 0%
  mortality at 6.25 ppm: 15%
  mortality at 25 ppm: 85%
[1]; [7]
  mortality at 0.025 ppm: 0%
  mortality at 0.1 ppm: 0%
  mortality at 0.4 ppm: 0%
  mortality at 6.25 ppm: 100%
  mortality at 25 ppm: 100%
[1]; [8]
  mortality at 0.025 ppm: 0%
  mortality at 0.1 ppm: 0%
  mortality at 0.4 ppm: 0%
  mortality at 1.6 ppm: 30%
  mortality at 6.25 ppm: 90%
  mortality at 25 ppm: 100%
[1]; [9]
  mortality at 0.025 ppm: 0%
  mortality at 0.1 ppm: 0%
  mortality at 0.4 ppm: 0%
  mortality at 1.6 ppm: 50%
  mortality at 6.25 ppm: 95%
  mortality at 25 ppm: 100%
[1]; [10]
  mortality at 0.025 ppm: 0%
  mortality at 0.1 ppm: 0%
  mortality at 0.4 ppm: 0%
  mortality at 1.6 ppm: 100%
  mortality at 6.25 ppm: 100%
  mortality at 25 ppm: 100%
[1]; [11]
  mortality at 0.025 ppm: 0%
  mortality at 0.1 ppm: 0%
  mortality at 0.4 ppm: 0%
  mortality at 1.6 ppm: 70%
  mortality at 6.25 ppm: 90%
  mortality at 25 ppm: 100%
[1]; [12]
  mortality at 0.025 ppm: 0%
  mortality at 0.1 ppm: 0%
  mortality at 0.4 ppm: 0%
  mortality at 1.6 ppm: 85%
  mortality at 6.25 ppm: 95%
  mortality at 25 ppm: 100%
[2]; 21-22 hours post infestation
  Geometric Mean of movement values for stimulated ticks: 21,200
[2]; 1 hours post infestation
  Geometric Mean of movement values for stimulated ticks: 51,000
[2]; 4 hours post infestation
  Geometric Mean of movement values for stimulated ticks: 29,000
[2]; 18 hours post infestation
  Geometric Mean of movement values for stimulated ticks: 17,400
[2]; 24 hours post infestation
  Geometric Mean of movement values for stimulated ticks: 19,700
[2]
  motility of ticks over time: reduction in motility
